Test results: ChEMBL document CHEMBL4130502, “Discovery of thienopyrrolotriazine derivatives to protect mitochondrial function against Aβ-induced neurotoxicity” (Eur J Med Chem, 2017)

Key:
CYP2C19 = CYP2C19 (Homo sapiens, UniProt P33261); test: Inhibition of human CYP2C19 assessed as remaining enzyme activity at 10 uM preincubated for 5 mins followed by Vivid CYP substrate addition measured after 20 mins by fluorescence assay relative to control; format: ADME; settings: probe Vivid CYP substrate, read-out: Activity
[1] = molecular target: Translocator protein (Mus musculus) (UniProt P50637); test: Inhibition of TSPO in mouse HT22 cells assessed as reduction in amyloid beta (1 to 42) (unknown origin) induced mitochondrial permeability transition pore formation by measuring increase in green to red fluorescence ratio at 5 uM pretreated for 10 mins followed by amyloid beta (1 to 42) stimulation and measured at 1 hr interval for 3 hrs by JC-1 dye based fluorescence assay relative to control; format: cell-based; set-up: scale not given: the % may be the effect or the level left
[2] = Stability in rat plasma assessed as parent compound remaining at 10 uM after 30 mins by LC-MS/MS analysis; format: ADME, cell-free; settings: read-out: Stability
[3] = Stability in dog liver microsomes assessed as parent compound remaining at 1 uM preincubated for 5 mins followed by NADPH addition measured after 30 mins by LC-MS/MS analysis; format: ADME, Canis lupus familiaris, microsome; settings: read-out: Stability
[4] = Stability in rat plasma assessed as parent compound remaining at 10 uM after 120 mins by LC-MS/MS analysis; format: ADME, cell-free; settings: read-out: Stability
[5] = Stability in human plasma assessed as parent compound remaining at 10 uM after 120 mins by LC-MS/MS analysis; format: ADME, cell-free; settings: read-out: Stability
CYP2D6 = CYP2D6 (Homo sapiens, UniProt P10635); test: Inhibition of human CYP2D6 assessed as remaining enzyme activity at 10 uM preincubated for 5 mins followed by Vivid CYP substrate addition measured after 20 mins by fluorescence assay relative to control; format: ADME; settings: probe Vivid CYP substrate, read-out: Activity
[6] = Stability in human liver microsomes assessed as parent compound remaining at 1 uM preincubated for 5 mins followed by NADPH addition measured after 30 mins by LC-MS/MS analysis; format: ADME, microsome; settings: read-out: Stability
[7] = Cytotoxicity against mouse HT22 cells as cell viability at 5 uM after 24 hrs by MTT assay relative to control; format: cell-based, HT-22; settings: read-out: Activity
Translocator protein [8] = molecular target: Translocator protein (Rattus norvegicus, UniProt P16257); test: Displacement of [3H]PK11195 from TSPO in Sprague-Dawley rat cerebral cortex membranes after 60 mins by liquid scintillation counting analysis; set-up: species or system Membrane
[9] = molecular target: Translocator protein (Mus musculus) (UniProt P50637); test: Inhibition of TSPO in mouse HT22 cells assessed as recovery of ATP production at 5 uM preincubated for 10 mins followed by amyloid beta (1 to 42) stimulation and measured after 7 hrs by luciferase based assay relative to control; format: cell-based; set-up: scale not given: the % may be the effect or the level left
CYP2C9 = CYP2C9 (Homo sapiens, UniProt P11712); test: Inhibition of human CYP2C9 assessed as remaining enzyme activity at 10 uM preincubated for 5 mins followed by Vivid CYP substrate addition measured after 20 mins by fluorescence assay relative to control; format: ADME; settings: probe Vivid CYP substrate, read-out: Activity
CYP1A2 = molecular target: T1, CYP1A2 (Homo sapiens, UniProt P05177); test: Inhibition of human CYP1A2 assessed as remaining enzyme activity at 10 uM preincubated for 5 mins followed by Vivid CYP substrate addition measured after 20 mins by fluorescence assay relative to control; format: ADME; settings: probe Vivid CYP substrate, read-out: Activity
T1 sequence (P05177 whole entry): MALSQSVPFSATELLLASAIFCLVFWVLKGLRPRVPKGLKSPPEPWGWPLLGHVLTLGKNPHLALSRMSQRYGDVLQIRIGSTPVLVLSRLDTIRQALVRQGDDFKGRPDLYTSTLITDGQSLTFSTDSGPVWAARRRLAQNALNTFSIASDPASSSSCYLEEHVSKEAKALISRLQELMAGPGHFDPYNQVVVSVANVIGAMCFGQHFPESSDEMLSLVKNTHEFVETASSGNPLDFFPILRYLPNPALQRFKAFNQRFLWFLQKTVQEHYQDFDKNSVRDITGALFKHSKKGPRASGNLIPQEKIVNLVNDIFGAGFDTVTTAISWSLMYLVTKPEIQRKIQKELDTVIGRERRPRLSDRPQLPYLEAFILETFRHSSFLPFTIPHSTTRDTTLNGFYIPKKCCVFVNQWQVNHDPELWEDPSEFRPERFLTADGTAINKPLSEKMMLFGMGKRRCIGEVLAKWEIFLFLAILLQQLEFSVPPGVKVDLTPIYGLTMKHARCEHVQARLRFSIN

Translocator protein [10] = molecular target: Translocator protein (Homo sapiens, UniProt P30536); test: Binding affinity to C-terminal DDK-tagged human recombinant full-length TSPO expressed in HEK293 cells by SPR assay
[11] = Stability in rat liver microsomes assessed as parent compound remaining at 1 uM preincubated for 5 mins followed by NADPH addition measured after 30 mins by LC-MS/MS analysis; format: ADME, microsome; settings: read-out: Stability
[12] = Stability in human plasma assessed as parent compound remaining at 10 uM after 30 mins by LC-MS/MS analysis; format: ADME, cell-free; settings: read-out: Stability
CYP3A4 = CYP3A4 (Homo sapiens, UniProt P08684); test: Inhibition of human CYP3A4 assessed as remaining enzyme activity at 10 uM preincubated for 5 mins followed by Vivid CYP substrate addition measured after 20 mins by fluorescence assay relative to control; format: ADME; settings: probe Vivid CYP substrate, read-out: Activity
[13] = Stability in mouse liver microsomes assessed as parent compound remaining at 1 uM preincubated for 5 mins followed by NADPH addition measured after 30 mins by LC-MS/MS analysis; format: ADME, microsome; settings: read-out: Stability

Sequence of CYP2D6 (P10635 whole entry): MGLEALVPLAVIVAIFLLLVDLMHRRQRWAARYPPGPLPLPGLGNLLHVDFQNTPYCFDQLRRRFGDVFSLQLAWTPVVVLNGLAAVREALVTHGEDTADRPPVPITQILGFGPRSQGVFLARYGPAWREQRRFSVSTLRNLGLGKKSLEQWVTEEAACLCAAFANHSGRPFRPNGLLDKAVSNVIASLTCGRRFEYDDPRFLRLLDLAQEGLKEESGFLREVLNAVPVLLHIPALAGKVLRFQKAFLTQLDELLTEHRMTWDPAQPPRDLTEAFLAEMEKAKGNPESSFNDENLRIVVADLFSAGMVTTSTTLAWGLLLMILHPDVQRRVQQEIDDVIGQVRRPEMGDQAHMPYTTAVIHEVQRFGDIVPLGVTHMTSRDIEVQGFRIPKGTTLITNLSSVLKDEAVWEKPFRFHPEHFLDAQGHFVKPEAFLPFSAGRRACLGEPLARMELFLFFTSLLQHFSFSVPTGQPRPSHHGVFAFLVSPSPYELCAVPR
Sequence of CYP2C9 (P11712 whole entry): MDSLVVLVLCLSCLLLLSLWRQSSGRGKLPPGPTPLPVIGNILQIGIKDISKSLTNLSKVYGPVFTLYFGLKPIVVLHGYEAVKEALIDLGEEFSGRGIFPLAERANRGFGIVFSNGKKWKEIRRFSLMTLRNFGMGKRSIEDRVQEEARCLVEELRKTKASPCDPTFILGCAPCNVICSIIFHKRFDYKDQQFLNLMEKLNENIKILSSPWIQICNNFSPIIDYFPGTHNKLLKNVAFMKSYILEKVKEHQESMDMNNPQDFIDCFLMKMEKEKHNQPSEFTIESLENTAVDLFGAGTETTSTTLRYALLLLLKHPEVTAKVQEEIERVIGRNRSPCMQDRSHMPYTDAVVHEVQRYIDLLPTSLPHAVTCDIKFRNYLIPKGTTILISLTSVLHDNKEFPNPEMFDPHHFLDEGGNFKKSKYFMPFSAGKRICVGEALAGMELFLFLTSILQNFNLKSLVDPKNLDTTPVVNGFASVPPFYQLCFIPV
Sequence of CYP2C19 (P33261 whole entry): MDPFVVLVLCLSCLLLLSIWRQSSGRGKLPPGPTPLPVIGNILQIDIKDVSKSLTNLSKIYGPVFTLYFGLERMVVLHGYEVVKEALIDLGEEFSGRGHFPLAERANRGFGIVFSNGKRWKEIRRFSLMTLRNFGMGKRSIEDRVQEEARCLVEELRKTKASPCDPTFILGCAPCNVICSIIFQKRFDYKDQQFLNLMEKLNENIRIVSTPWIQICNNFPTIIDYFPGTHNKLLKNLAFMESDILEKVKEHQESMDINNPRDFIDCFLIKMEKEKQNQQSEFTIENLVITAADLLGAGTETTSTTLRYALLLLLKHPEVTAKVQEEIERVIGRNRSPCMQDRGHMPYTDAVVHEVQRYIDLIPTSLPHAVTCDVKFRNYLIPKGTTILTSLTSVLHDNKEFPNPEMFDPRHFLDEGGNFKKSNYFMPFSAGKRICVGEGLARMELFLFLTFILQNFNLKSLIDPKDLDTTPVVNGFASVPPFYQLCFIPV
Sequence of CYP3A4 (P08684 whole entry): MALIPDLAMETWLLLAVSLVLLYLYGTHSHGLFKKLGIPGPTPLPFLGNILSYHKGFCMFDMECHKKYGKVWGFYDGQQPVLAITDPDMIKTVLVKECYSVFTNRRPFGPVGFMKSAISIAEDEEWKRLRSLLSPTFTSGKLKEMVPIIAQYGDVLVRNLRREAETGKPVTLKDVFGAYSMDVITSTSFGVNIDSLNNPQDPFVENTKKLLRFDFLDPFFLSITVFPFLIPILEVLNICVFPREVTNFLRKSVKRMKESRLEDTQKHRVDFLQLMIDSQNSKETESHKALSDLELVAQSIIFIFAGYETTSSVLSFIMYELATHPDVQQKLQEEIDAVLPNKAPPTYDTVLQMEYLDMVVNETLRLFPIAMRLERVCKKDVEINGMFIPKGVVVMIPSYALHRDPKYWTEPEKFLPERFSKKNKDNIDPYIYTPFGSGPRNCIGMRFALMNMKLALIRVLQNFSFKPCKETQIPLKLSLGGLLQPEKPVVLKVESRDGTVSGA
Sequence of Translocator protein (Rattus norvegicus, UniProt P16257) (P16257 whole entry, looked up): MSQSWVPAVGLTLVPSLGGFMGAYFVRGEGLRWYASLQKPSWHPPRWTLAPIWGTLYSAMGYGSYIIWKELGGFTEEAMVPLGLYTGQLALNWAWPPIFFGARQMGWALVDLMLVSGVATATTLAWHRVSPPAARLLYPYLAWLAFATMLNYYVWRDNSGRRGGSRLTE
Sequence of Translocator protein (Mus musculus) (P50637 whole entry, looked up): as the sequence (P16257 whole entry, looked up) above, with S2P, Q3E, I67V, E77D, V110A, M113L, M149V, T168P counted along it
Sequence of Translocator protein (Homo sapiens, UniProt P30536) (P30536 whole entry): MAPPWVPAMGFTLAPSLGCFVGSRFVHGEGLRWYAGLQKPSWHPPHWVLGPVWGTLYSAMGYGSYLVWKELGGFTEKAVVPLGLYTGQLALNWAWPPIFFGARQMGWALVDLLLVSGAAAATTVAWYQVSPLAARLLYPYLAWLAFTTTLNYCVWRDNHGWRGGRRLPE

activity at 20 min, 10 µM (CYP2C19) [%]	Activity [1] [%]	remaining at 0.5 h, 10 µM [2] [%]	remaining at 0.5 h, 1 µM [3] [%]	remaining at 2 h, 10 µM [4] [%]	remaining at 2 h, 10 µM [5] [%]	activity at 20 min, 10 µM (CYP2D6) [%]	remaining at 0.5 h, 1 µM [6] [%]	IC50 (Translocator protein [8]) [µM]	Activity [9] [%]	activity at 20 min, 10 µM (CYP2C9) [%]	activity at 20 min, 10 µM (CYP1A2) [%]	Kd (Translocator protein [10]) [µM]	remaining at 0.5 h, 1 µM [11] [%]	remaining at 0.5 h, 10 µM [12] [%]	activity at 20 min, 10 µM (CYP3A4) [%]	remaining at 0.5 h, 1 µM [13] [%]	Structure (SMILES)	viability at 24 h, 5 µM [7] [%]
52.2	61	96.6	9.8	80.6	93.6	60.4	8.8	0.0399	44	64.8	50.7	0.0612	9	99.3	64.1	12.8	CCc1nnc(SCC(=O)N(C)c2ccccc2)c2cc3sc(C)cc3n12	91
30.9	62	–	–	–	–	54.2	–	> 10	18	50	65.5	–	–	–	44.7	–	CCc1nnc(SCC(=O)Nc2ccc(OC)c(OC)c2)c2cc3sc(C)cc3n12	91
28.8	56	–	–	–	–	48.8	–	0.0551	25	124	46.8	–	–	–	41.3	–	Cc1nnc(SCC(=O)N(C)c2ccccc2)c2cc3sccc3n12	99
16.8	46	94	5.1	72.4	96.8	49.5	5	0.0248	8	70.5	33.7	0.0396	6.4	> 100	32.2	8.2	CCc1nnc(SCC(=O)N(C)c2ccccc2)c2cc3sccc3n12	97
